This note sets out measurements from patent publication US8304447B2, “2-acylaminopropoanol-type glucosylceramide synthase inhibitors” (Genzyme Corporation, priority 2007, dated 2012).

Some results are limits rather than exact numbers.

The subject of one test is GM3. Put plainly: GM3 Elisa assay. The following applies: 48 h, Table 1; B16-FO cells, 2 days incubation; read-out: IC50_uM_Mean. Format: cell-based. Summed up:
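Murine B16-FO melanoma cells attached 6 h on collagen, then exposed to compounds for 2 days at 37 °C. After formaldehyde fixation, cell-surface GM3 (NeuAc) was detected by anti-GM3 IgM and peroxidase anti-mouse IgM with Quantablu fluorescence (Ex 325/Em 420).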
On to `O=C(N[C@H](CN1CCCC1)[C@H](O)c1ccc2c(c1)OCCO2)c1ccc(-c2ccccc2)cc1` [Compound 12, N-((1R,2R)-1-(2,3-dihydrobenzo[β][1,4]dioxin-6-yl)-1-hydroxy-3-(pyrrolidin-1-yl)propan-2-yl)biphenyl-4-carboxamide], for which the IC50 fell in the range of 100 to 1000 nM.

`COc1ccc(C(=O)CCCCCCC(=O)N[C@H](CN2CCCC2)[C@H](O)c2ccc3c(c2)OCCO3)cc1` [Compound 144, N-((1R,2R)-1-(2,3-dihydrobenzo[β][1,4]dioxin-6-yl)-1-hydroxy-3-(pyrrolidin-1-yl)propan-2-yl)-8-(4-methoxyphenyl)-8-oxooctanamide]: the IC50 is at most 100 nM.

As for `COc1ccc(OCCCC(=O)N[C@H](CN2CCCC2)[C@H](O)c2ccc3c(c2)OCCO3)cc1` [Compound 197, N-((1R,2R)-1-(2,3-dihydrobenzo[β][1,4]dioxin-6-yl)-1-hydroxy-3-(pyrrolidin-1-yl)propan-2-yl)-4-(4-methoxyphenoxy)butanamide (2S,3S)-2,3-dihydroxysuccinate], the IC50 was at most 100 nM.

Take `O=C(NCc1ccccc1)N[C@H](CN1CCCC1)[C@H](O)c1ccc2c(c1)OCCO2` [Compound 6, 1-benzyl-3-((1R,2R)-1-(2,3-dihydrobenzo[β][1,4]dioxin-6-yl)-1-hydroxy-3-(pyrrolidin-1-yl)propan-2-yl)urea]: the IC50 was 100 to 1000 nM.

With `COc1ccc(C(=O)CCCC(=O)N[C@H](CN2CCCC2)[C@H](O)c2ccc3c(c2)OCCO3)cc1` [Compound 191, N-((1R,2R)-1-(2,3-dihydrobenzo[β][1,4]dioxin-6-yl)-1-hydroxy-3-(pyrrolidin-1-yl)propan-2-yl)-5-(4-methoxyphenyl)-5-oxopentanamide (2R,3R)-2,3-dihydroxysuccinate], the IC50 is at most 100 nM.

As to `COc1ccc(C(=O)CCCCC(=O)N[C@H](CN2CCCC2)[C@H](O)c2ccc3c(c2)OCCO3)cc1` [Compound 141, N-((1R,2R)-1-(2,3-dihydrobenzo[β][1,4]dioxin-6-yl)-1-hydroxy-3-(pyrrolidin-1-yl)propan-2-yl)-6-(4-methoxyphenyl)-6-oxohexanamide], the IC50 was at most 100 nM.

Turning to `O=C(CCSc1ccccc1)N[C@H](CN1CCCC1)[C@H](O)c1ccc2c(c1)OCCO2` [Compound 32, N-((1R,2R)-1-(2,3-dihydrobenzo[β][1,4]dioxin-6-yl)-1-hydroxy-3-(pyrrolidin-1-yl)propan-2-yl)-3-(phenylthio)propanamide], the IC50 was at most 100 nM.

The test is the same for the next values; noted with them: 48 h, Table 2; B16-FO cells, 2 days incubation; read-out: IC50_uM_Mean.
`CCCCCCCC(=O)N[C@H](CNCCCC)[C@H](O)c1ccc2c(c1)OCCO2` [Compound 310]: the IC50 was 1000 to 3000 nM.

With `COc1ccc(OCCC(=O)N[C@H](CN2CCCCC2)[C@H](O)c2ccc3c(c2)OCCO3)cc1` [Compound 261, N-((1R,2R)-1-(2,3-dihydrobenzo[β][1,4]dioxin-6-yl)-1-hydroxy-3-(piperidin-1-yl)propan-2-yl)-3-(4-methoxyphenoxy)propanamide], the IC50 lay within 100 to 1000 nM.

Regarding `CCCCCCCCCCCCCCCC(=O)N[C@H](CN1CCOCC1)[C@H](O)c1ccccc1` [Compound 317], the IC50 lay within 100 to 1000 nM.

Still in this test, the particulars now being: Table 3 (IC 50 Values); B16-FO cells; read-out: IC50_uM_Mean.
With `COC[C@@H]1CCCN1C[C@@H](NC(=O)CCOc1ccc(OC)cc1)[C@@H](O)c1ccc2c(c1)OCCO2` [Compound 535], the IC50 lay in the range of 3000 to 10000 nM.

Consider `COc1ccc(C(=O)CCCCCC(=O)N[C@H](CN2CCCC2)[C@H](O)c2ccc(OC)c(Cl)c2)cc1` [Compound 707], for which the IC50 was at most 100 nM.

As for `COC1CCC(OCCC(=O)N[C@H](CN2C(C)CCCC2C)[C@@H](O)c2ccc3c(c2)OCCO3)CC1` (stereo partly shown) [Compound 598], the IC50 lay within 3000 to 10000 nM.

For `Cc1ccc(OCCC(=O)N[C@H](CN2CC[C@@H](F)C2)[C@H](O)c2ccc(OC(C)C)cc2)cc1` [Compound 448], the IC50 lay in the range of 100 to 1000 nM.

As to `COc1ccc(C(=O)CCCCC(=O)N[C@H](CN2CCCC2)[C@H](O)c2ccc(OCCCOc3cccc(C)c3)cc2)cc1` [Compound 437], the IC50 is at most 100 nM.

Consider `O=C(CCCOc1ccc(F)cc1)N[C@H](CN1CC[C@@H](F)C1)[C@H](O)c1ccc2c(c1)OCCO2` [Compound 567], for which the IC50 fell in the range of 100 to 1000 nM.

As for `COc1ccc(C(=O)CCCCC(=O)N[C@H](CN2CCCC2)[C@H](O)c2ccc(OCc3ccccc3)cc2)cc1` [Compound 706], the IC50 was at most 100 nM.

Turning to `CCCCCCCC(=O)N[C@H](CN1CCC[C@H]1COC)[C@@H](O)c1ccc2c(c1)OCCO2` [Compound 534], the IC50 was in the range of 3000 to 10000 nM.

`COc1ccc(C(=O)CCCCCC(=O)N[C@H](CN2CCCC(C)C2)[C@H](O)c2ccc3c(c2)OCCO3)cc1` (stereo partly shown) [Compound 609]: the IC50 lay within 100 to 1000 nM.

In the case of `COc1ccc(OCCC(=O)N[C@H](CN2[C@H](C)CC[C@H]2C)[C@H](O)c2ccc3c(c2)OCCO3)cc1` [Compound 550], the IC50 is 3000 to 10000 nM.

Consider `COc1ccc(C(=O)CCCC(=O)N[C@H](CN2CC[C@H](O)C2)[C@H](O)c2ccc(OCCCCF)cc2)cc1` [Compound 500], for which the IC50 was at most 100 nM.

As for `O=C(N[C@H](CN1CCCC1)[C@H](O)c1ccc2c(c1)OC(F)(F)O2)OCc1ccccc1` [Compound 404], the IC50 was 3000 to 10000 nM.

On to `COc1ccc(C(=O)CCCCCC(=O)N[C@H](CN2[C@H](C)CC[C@H]2C)[C@H](O)c2ccc3c(c2)OCCO3)cc1` [Compound 548], for which the IC50 was in the range of 1000 to 3000 nM.

As to `CCCCCCOc1ccc([C@@H](O)[C@@H](CN2CC[C@@H](F)C2)NC(=O)CCCOc2ccc(OC)cc2)cc1` [Compound 730], the IC50 was at most 100 nM.

For `CCCCCCOc1ccc([C@@H](O)[C@@H](CN2CC[C@H](O)C2)NC(=O)CCCCC(=O)c2ccc(OC)cc2)cc1` [Compound 368], the IC50 is at most 100 nM.

For `O=C(CCCCS(=O)(=O)C1CCCCC1)N[C@H](CN1CCCC1)[C@H](O)c1ccc2c(c1)OCCO2` [Compound 557], the IC50 was 3000 to 10000 nM.

On to `CCCCCCCC(=O)N[C@H](CN1CCCC1)[C@H](O)c1ccc(C(F)(F)F)cc1` [Compound 488], for which the IC50 lay in the range of 1000 to 3000 nM.

Take `O=C(Cc1ccc(OC(F)(F)F)cc1)N[C@H](CN1CCCC1)[C@H](O)c1ccc2c(c1)OC(F)(F)C(F)(F)O2` [Compound 398]: the IC50 lay in the range of 3000 to 10000 nM.

As to `COc1ccc(OCCC(=O)N[C@H](CN2CCCC2)[C@H](O)c2ccc(C(F)(F)F)cc2)cc1` [Compound 489], the IC50 lay within 3000 to 10000 nM.

With `COc1ccc(C(=O)CCCCC(=O)N(Cc2ccc(OC(F)F)cc2)[C@H](CN2CCCC2)[C@H](O)c2ccc(O)cc2)cc1` [Compound 427], the IC50 fell in the range of 3000 to 10000 nM.

On to `COc1ccc(C(=O)CCCCC(=O)N[C@H](CN2CCCC2)[C@H](O)c2ccc(OCC3CCCCC3)cc2)cc1` [Compound 420], for which the IC50 was at most 100 nM.

In the case of `CCCCOc1ccc([C@@H](O)[C@@H](CN2CC[C@@H](F)C2)NC(=O)CCCCCOCCF)cc1` [Compound 660], the IC50 lay within 100 to 1000 nM.

Turning to `O=C(CCCCC(=O)C1CCC(F)(F)CC1)N[C@H](CN1CCCC1)[C@H](O)c1ccc2c(c1)OCCO2` [Compound 558], the IC50 was 1000 to 3000 nM.

Take `O=C(CCCCCC(=O)c1ccc(F)cc1)N[C@H](CN1CC[C@@H](F)C1)[C@H](O)c1ccc2c(c1)OCCO2` [Compound 565]: the IC50 is at most 100 nM.

For the compound `COCCOc1ccc(C(=O)CCCCC(=O)N[C@H](CN2CC[C@H](O)C2)[C@H](O)c2ccc(OC(C)C)cc2)cc1` [Compound 740], the IC50 is at most 100 nM.

Turning to `COc1ccc(OCCC(=O)N[C@H](CN2CC[C@H](c3ccccc3)C2)[C@H](O)c2ccc3c(c2)OCCO3)cc1` [Compound 505], the IC50 lay in the range of 3000 to 10000 nM.

Regarding `COc1ccc(C(=O)CCCC(=O)N[C@H](CN2CCCC2)[C@H](O)c2ccc(OC)c(C)c2)cc1` [Compound 386], the IC50 lay in the range of 100 to 1000 nM.

Take `COc1ccc(C(=O)CCCCCC(=O)N[C@H](CN(CC2CC2)CC2CC2)[C@H](O)c2ccc3c(c2)OCCO3)cc1` [Compound 464]: the IC50 was in the range of 3000 to 10000 nM.

`O=C(CCCn1cccn1)N[C@H](CN1CCCC1)[C@H](O)c1ccc2c(c1)OCCO2` [Compound 643]: the IC50 lay within 1000 to 3000 nM.

In the case of `CCCCCCCC(=O)N[C@H](CN1CCC[C@@H]1C)[C@@H](O)c1ccc2c(c1)OCCO2` [Compound 527], the IC50 lay in the range of 1000 to 3000 nM.

For `COc1ccc(OCCC(=O)N[C@H](CN2CCC2)[C@H](O)c2ccc3c(c2)OCCO3)cc1` [Compound 599], the IC50 lay in the range of 1000 to 3000 nM.

For the compound `CCCCOc1ccc(C(O)[C@@H](CN2CC[C@@H](F)C2)NC(=O)CCCCCCCOC)cc1` (stereo partly shown) [Compound 584], the IC50 fell in the range of 100 to 1000 nM.

On to `COc1ccc(OCCC(=O)N[C@H](CN2CCCC2)[C@H](O)c2ccc(OC)c(Cl)c2)cc1` [Compound 711], for which the IC50 is at most 100 nM.

For the compound `COCCOCCOc1ccc([C@@H](O)[C@@H](CN2CCCC2)NC(=O)CCOc2ccc(OC)cc2)cc1` [Compound 713], the IC50 was in the range of 100 to 1000 nM.

For `CCCCCCCC(=O)N[C@H](CC1CC(OCCC)C1)[C@H](O)c1ccc2c(c1)OCCO2` (stereo partly shown) [Compound 596], the IC50 fell in the range of 3000 to 10000 nM.

Regarding `COc1ccc(S(=O)(=O)CCCCCC(=O)N[C@H](CN2CCCC2)[C@H](O)c2ccc3c(c2)OCCO3)cc1` [Compound 555], the IC50 lay within 100 to 1000 nM.

Take `COc1ccc(OCCC(=O)N[C@H](CN2CC[C@H](O)C2)[C@H](O)c2ccc3c(c2)OCCO3)cc1` [Compound 514]: the IC50 fell in the range of 100 to 1000 nM.

Take `COc1ccc(C(=O)CCCCC(=O)N[C@H](CN2CCCC2)[C@H](O)c2ccc(OC)c(C)c2)cc1` [Compound 387]: the IC50 lay within 100 to 1000 nM.

As to `COc1ccc(C(=O)CCCCC(=O)N[C@H](CN2CCCC2)[C@H](O)c2ccc(OCCOc3ccc(C#N)cc3)cc2)cc1` [Compound 364], the IC50 is at most 100 nM.

On to `COc1ccc(C(=O)CCCCCC(=O)N[C@H](CN2CCC(F)(F)CC2)[C@H](O)c2ccc3c(c2)OCCO3)cc1` [Compound 625], for which the IC50 lay in the range of 3000 to 10000 nM.

In the case of `CCCCCCCC(=O)N[C@H](CN1CCC[C@H]1C(F)(F)F)[C@H](O)c1ccc2c(c1)OCCO2` [Compound 543], the IC50 fell in the range of 3000 to 10000 nM.

For `COCCOc1ccc(C(=O)CCCC(=O)N[C@H](CN2CC[C@H](O)C2)[C@H](O)c2ccc(OC(C)C)cc2)cc1` [Compound 737], the IC50 lay within 100 to 1000 nM.
